Reference: patent US11382889B2, “NRF2 activators for the prevention and/or treatment of axonal degeneration” (priority 2018, dated 2022)
Structures can show the parent of a compound that is named as a salt.

Experiments:
Assay type in all cases: in vivo
[1] = system: Abcd1−/Abcd2−/− (DKO) mice spinal cord; experiment: Immunohistological analysis of axonal pathologies in Abcd1−/Abcd2−/− (DKO) mice spinal cord; conditions: 18 months of age, DMF 100 mg/kg in chow for 6 months
Text: (§1) a-x) Immunohistological analysis of axonal pathologies performed in 18-month-old WT, Abcd1^−/Abcd2^−/− (DKO) and Abcd1^−/Abcd2^−/− mice treated with DMF (DKO+DMF) (n=5 per genotype and condition). Spinal cord immunohistological sections were processed for (a-c) Iba1, (d-f) GFAP, (g-i) Synaptophysin, (j-l) APP, (m-o) Sudan black, (p-r) 8-oxo-dG, (s-u) CYT C and (v-x) SMI-32 immunostaining. Representative images for (a, d, g, j, m, p, s, v) WT, (b, e, h, k, n, q, t, w) DKO, and (c, f, i, l, o, r, u, x) DKO+DMF are shown. Scale bars=25 μm (a-r) and […] (s-x). y) Quantification of synaptophysin and APP accumulations in spinal cord immunohistological sections of WT (n=5), DKO (n=5) and DKO+DMF (n=5) mice. z) Bar-cross and treadmill tests performed on 18-month-old WT (n=14), Abcd1^−//Abcd2^−/− (DKO) (n=16) and Abcd1^−//Abcd2^−/− mice treated with DMF (DKO+DMF) (n=14). […] Values are expressed as mean±SD (*p<0.05, **p<0.01, ***p<0.001 after one-way ANOVA test followed by Tukey's post hoc test; p<0.05, p<0.001 after non-parametric Kruskal-Wallis' test).
To address the therapeutic effect of DMF, we assessed the clinical signs of AMN in Abcd1^−/Abcd2^−/− (DKO) mice, which display increased VLCFA accumulation in the spinal cord, higher levels of oxidative damage to proteins, and a more severe AMN-like pathology with an earlier onset at 12 months of age.
For biochemical analysis, we killed the mice and stored the tissues at −80° C. after snap-freezing them in liquid nitrogen. For histological analysis, spinal cord was harvested from 18-month-old mice after perfusing them with 4% paraformaldehyde (PFA; Sigma-Aldrich, Ref. 441244) in 0.1 M phosphate buffer pH 7.4. Histological and behavioural tests were performed in a blind way with respect to the animal's genotype and for the treatment administered.
To evaluate the effect of DMF on axonal degeneration and locomotor impairment in X-ALD, Abcd1^−/Abcd2^−/− mice (DKO) were fed with chow including DMF (100 mg/kg).

Abcd1− mice spinal cord = experiment: Mitochondrial depletion and bioenergetic failure in Abcd1− mice spinal cord; conditions: 12 months of age, DMF 100 mg/kg/day in chow for 4 months
Method: b) NRF2-dependent antioxidative genes (Hmox1, Nqo1 and Gst α 3) expression in WT (n=8), Abcd1^− (n=8) and Abcd1^−+DMF (n=8) mice spinal cord at 12 months of age. Gene expression levels were normalized relative to Rplp0. Quantification is represented as fold change to WT mice. c) Mitochondrial DNA (mtDNA) levels in WT (n=8), Abcd1^− (n=8) and Abcd1^−+DMF (n=8) mice spinal cord at 12 months of age. mtDNA content was measured by quantitative RT-PCR and expressed as the ratio of mtDNA (CytB levels) to nuclear DNA (nDNA, Cebpa levels). Quantification is depicted as fold change to WT mice. d) Sirt1, Pgc-1α, Nrf1 and Tfam expression was measured by quantitative RT-PCR in WT (n=8), Abcd1^− (n=8) and Abcd1^−+DMF (n=8) mice spinal cord at 12 months of age. Gene expression levels were normalized relative to Rplp0. Quantification is depicted as fold change to WT mice. e) ATP levels in WT (n=8), Abcd1^− (n=8) and Abcd1^−+DMF (n=8) mice spinal cord at 12 months of age. Quantification is represented as fold change to WT mice. Data are shown as mean±SD (*p<0.05, **p<0.01, ***p<0.001 after one-way ANOVA test followed by Tukey's post-hoc test; #p<0.05 after one-way ANOVA test followed by Dunnett's post-hoc test; p<0.05, p<0.01 after non-parametric Kruskal-Wallis' test).
Cages contained 3 to 5 animals.
We used two X-ALD mouse models in this study. We characterized the biochemical signs of adult X-ALD in Abcd1^− mice at 12 months of age. These mice show biochemical signs of pathology, including oxidative stress and energetic homeostasis impairment, before the first clinical signs of AMN-like pathology (axonopathy and locomotor impairment) appear at 20 months.
For biochemical analysis, we killed the mice and stored the tissues at −80° C. after snap-freezing them in liquid nitrogen. For histological analysis, spinal cord was harvested from 18-month-old mice after perfusing them with 4% paraformaldehyde (PFA; Sigma-Aldrich, Ref. 441244) in 0.1 M phosphate buffer pH 7.4. […]

[2] = system: Abcd1−/Abcd2−/− (DKO) mice; experiment: Bar cross and treadmill tests in Abcd1−/Abcd2−/− (DKO) mice; conditions: 18 months of age, end of treatment, DMF 100 mg/kg in chow for 6 months
Text: as §1
To address the therapeutic effect of DMF, we assessed the clinical signs of AMN in Abcd1^−/Abcd2^−/− (DKO) mice, which display increased VLCFA accumulation in the spinal cord, higher levels of oxidative damage to proteins, and a more severe AMN-like pathology with an earlier onset at 12 months of age. […]

## COC(=O)/C=C/C(=O)OC [DMF, dimethyl fumarate]
[1]; DKO mice spinal cord
  accumulation of APP in axons: prevented the accumulation
  accumulation of synaptophysin in axons: prevented the accumulation
  astrocytosis (GFAP): reversed
  microgliosis (Iba1): reversed
  mitochondrial levels (CYT C staining in motor neurons): improved
  motor neurons health (SMI-32 staining): improved
  oxidative damage to DNA (8-oxo-dG staining): reduced
[1]; DKO mice
  myelin debris along the spinal cord (Sudan black): halted the appearance
Abcd1− mice spinal cord; Abcd1− mouse spinal cord
  mitochondrial DNA (mtDNA) levels: normalized
  mitochondrial biogenesis genes mRNA expression (Sirt1, Pgc-1α, Nrf1, Tfam): normalized
Abcd1− mice spinal cord; X-ALD (Abcd1−) mouse spinal cord
  ATP levels: normalized
[2]
  bar cross test (number of slips and time to cross the bar): behaved similar to WT mice
  treadmill test (number and duration of shocks): improved the performance of DKO mice in this test, up to the level of WT mice
